{"source": "patent US8324245B2", "about": "“Quinoline derivative and quinazoline derivative inhibiting self-phosphorylation of hepatocytus proliferator receptor, and medicinal composition containing the same” (Kyowa Hakko Kirin Co., Ltd., priority 2001, dated 2012)"}
{"target": "T1, met (HGF receptor) in human gastric cancer cells MKN45 (Homo sapiens, UniProt P08581)", "T1 construct": "endogenous in cells; host or cells: MKN45 human gastric cancer cells", "T1 sequence (P08581 25-1390)": "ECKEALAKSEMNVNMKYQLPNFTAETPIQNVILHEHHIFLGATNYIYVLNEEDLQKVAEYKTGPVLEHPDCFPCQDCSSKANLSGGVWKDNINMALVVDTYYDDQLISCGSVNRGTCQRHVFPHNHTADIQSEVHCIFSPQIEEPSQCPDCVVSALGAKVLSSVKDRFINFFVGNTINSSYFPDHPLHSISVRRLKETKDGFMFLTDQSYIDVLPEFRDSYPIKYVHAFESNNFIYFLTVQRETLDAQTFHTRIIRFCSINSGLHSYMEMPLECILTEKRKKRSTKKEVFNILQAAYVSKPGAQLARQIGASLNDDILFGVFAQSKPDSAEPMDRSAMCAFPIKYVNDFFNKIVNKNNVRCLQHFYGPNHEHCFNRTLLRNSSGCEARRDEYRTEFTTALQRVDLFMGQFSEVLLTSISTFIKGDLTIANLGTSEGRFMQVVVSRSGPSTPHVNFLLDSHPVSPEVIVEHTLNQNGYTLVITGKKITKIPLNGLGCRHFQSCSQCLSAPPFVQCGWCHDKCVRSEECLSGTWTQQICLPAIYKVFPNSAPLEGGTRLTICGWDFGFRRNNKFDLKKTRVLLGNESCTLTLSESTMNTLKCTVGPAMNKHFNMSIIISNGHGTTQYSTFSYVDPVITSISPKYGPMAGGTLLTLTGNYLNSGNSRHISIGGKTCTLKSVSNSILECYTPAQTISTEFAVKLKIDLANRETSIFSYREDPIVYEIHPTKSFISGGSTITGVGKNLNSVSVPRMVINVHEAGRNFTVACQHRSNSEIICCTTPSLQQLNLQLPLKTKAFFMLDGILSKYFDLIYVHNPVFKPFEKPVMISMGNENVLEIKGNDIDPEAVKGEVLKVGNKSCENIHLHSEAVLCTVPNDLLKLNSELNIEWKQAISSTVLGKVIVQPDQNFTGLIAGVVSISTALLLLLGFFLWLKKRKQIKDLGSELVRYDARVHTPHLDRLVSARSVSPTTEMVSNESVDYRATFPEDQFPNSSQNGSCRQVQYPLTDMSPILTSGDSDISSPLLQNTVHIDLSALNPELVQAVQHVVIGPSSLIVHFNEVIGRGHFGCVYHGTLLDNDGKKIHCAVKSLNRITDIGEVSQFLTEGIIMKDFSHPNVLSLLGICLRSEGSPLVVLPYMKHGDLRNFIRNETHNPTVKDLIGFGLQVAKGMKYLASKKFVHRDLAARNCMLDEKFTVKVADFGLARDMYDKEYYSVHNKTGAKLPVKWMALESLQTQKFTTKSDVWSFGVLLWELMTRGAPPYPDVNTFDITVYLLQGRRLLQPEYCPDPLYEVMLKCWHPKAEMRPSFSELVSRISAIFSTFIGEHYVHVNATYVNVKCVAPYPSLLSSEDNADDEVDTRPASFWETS", "assay": "Inhibitory activity against met-autophosphorylation using ELISA method (2), MKN45 cells, HGF-independent", "type": "cell-based", "in_short": "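MKN45 cells, 3×10^4 per well in RPMI with 0.1% FCS overnight, were exposed to compound in DMSO for 1 h at 37 °C without HGF. Lysates were captured on anti-phosphotyrosine (PY20) plates, Met detected with anti-Met and peroxidase secondary antibody, absorbance at 450 nm.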", "units": {"IC50": "nM"}}
{"compound": "COc1cc2nccc(Oc3ccc(NC(=O)NC(=O)Cn4ccnn4)cc3Cl)c2cc1OC", "note": "[Example 123, 1-[3-chloro-4-(6,7-dimethoxyquinolin-4-yloxy)phenyl]-3-(2-[1,2,3]triazol-1-ylacetyl)urea]", "IC50": 2010}
{"compound": "COc1cc2nccc(Oc3ccc(NC(=O)NC(=O)Nc4ccc(Cl)cc4)cc3)c2cc1OC", "note": "[Example 249, N-(4-chlorophenyl)-({[4-(6,7-dimethoxy-quinolin-4-yloxy)anilino]carbonyl}amino)methanamide]", "IC50": 526}
{"compound": "COc1cc2nccc(Oc3ccc(NC(=S)NC(=O)Cc4cccc(C)c4)cc3)c2cc1OC", "note": "[Example 77, 1-[4-(6,7-dimethoxyquinolin-4-yloxy)phenyl]-3-(2-m-tolylacetyl)thiourea]", "IC50": 178}
{"compound": "COc1cc2nccc(Oc3ccc(NC(=O)CC(=O)Nc4ccc(F)cc4F)cc3)c2cc1OC", "note": "[Example 102, N-(2,4-difluorophenyl)-N′-[4-(6,7-dimethoxy-quinolin-4-yloxy)phenyl]malonamide]", "IC50": 91.8}
{"compound": "CCN(CC)CCOc1cc2nccc(Oc3ccc(NC(=S)NC(=O)Cc4ccccc4)cc3F)c2cc1OC", "note": "[Example 272, 1-{4-[7-(2-Diethylamine-ethoxy)-6-methoxy-quinolin-4-yloxy]-3-fluoro-phenyl}-3-phenylacetyl-thiourea]", "IC50": 33.6}
{"compound": "COc1cc2nccc(Oc3ccc(NC(=O)NC(=O)Cc4cccc(F)c4)cc3F)c2cc1OC", "note": "[Example 37, 1-[4-(6,7-dimethoxyquinolin-4-yloxy)-3-fluoro-phenyl]-3-[2-(3-fluorophenyl)acetyl]urea]", "IC50": 58.4}
{"compound": "COc1cc2nccc(Oc3ccc(NC(=S)NC(=O)Cc4cc(F)cc(F)c4)c(F)c3)c2cc1OC", "note": "[Example 196, 1-[2-(3,5-difluorophenyl)acetyl]-3-[4-(6,7-dimethoxyquinolin-4-yloxy)-2-fluorophenyl]thiourea]", "IC50": 322}
{"compound": "COc1cc2c(Oc3ccc(NC(=O)NC(=O)Cc4ccccc4)cc3F)ccnc2cc1OCCCN1CCCC1", "note": "[Example 292, 1-{3-Fluoro-4-[6-methoxy-7-(3-pyrrolidin-1-yl-propoxy)-quinolin-4-yloxy]-phenyl}-3-phenylacetyl-urea]", "IC50": 20.3}
{"compound": "COc1cc2nccc(Oc3ccc(NC(=S)NC(=O)Cc4c(Cl)cccc4Cl)cc3F)c2cc1OC", "note": "[Example 97, 1-[2-(2,6-dichlorophenyl)acetyl]-3-[4-(6,7-dimethoxyquinolin-4-yloxy)-3-fluorophenyl]thiourea]", "IC50": 37.6}
{"compound": "COc1cc2nccc(Oc3ccc(NC(=O)NC(=O)Nc4ncccc4C)cc3)c2cc1OC", "note": "[Example 233, N-(3-methyl-2-pyridyl)-({[4-(6,7-dimethoxy-quinolin-4-yloxy)anilino]carbonyl}amino)methanamide]", "IC50": 322}
{"compound": "COc1cc2nccc(Oc3ccc(NC(=O)NC(=O)CN4CCCC4)cc3Cl)c2cc1OC", "note": "[Example 111, 1-[3-chloro-4-(6,7-dimethoxyquinolin-4-yloxy)phenyl]-3-(2-pyrrolidin-1-ylacetyl)urea]", "IC50": 1810}
{"compound": "COc1cc2nccc(Oc3ccc(NC(=O)CC(=O)Nc4ccc(F)cc4F)cc3Cl)c2cc1OC", "note": "[Example 6, N-[3-chloro-4-(6,7-dimethoxyquinolin-4-yloxy)-phenyl]-N′-(2,4-difluorophenyl)malonamide]", "IC50": 31.6}
{"compound": "COc1cc2nccc(Oc3ccc(NC(=O)NC(=O)Cc4ccccc4C(F)(F)F)cc3F)c2cc1OC", "note": "[Example 137, 1-[4-(6,7-dimethoxyquinolin-4-yloxy)-3-fluorophenyl]-3-[2-(2-trifluoromethylphenyl)acetyl]urea]", "IC50": 271}
{"compound": "COc1cc2nccc(Oc3ccc(NC(=S)NC(=O)Cc4ccc(F)c(F)c4)cc3F)c2cc1OC", "note": "[Example 199, 1-[2-(3,4-difluorophenyl)acetyl]-3-[4-(6,7-dimethoxyquinolin-4-yloxy)-3-fluorophenyl]thiourea]", "IC50": 241}
{"compound": "COc1cc2nccc(Oc3ccc(NC(=O)NC(=O)Cc4cc(F)cc(F)c4)c(F)c3)c2cc1OC", "note": "[Example 141, 1-[2-(3,5-difluorophenyl)acetyl]-3-[4-(6,7-dimethoxyquinolin-4-yloxy)-2-fluorophenyl]urea]", "IC50": 336}
{"compound": "CCCCOCC(=O)NC(=S)Nc1ccc(Oc2ccnc3cc(OC)c(OC)cc23)c(Cl)c1", "note": "[Example 193, 1-(2-butoxyacetyl)-3-[3-chloro-4-(6,7-dimethoxyquinolin-4-yloxy)phenyl]thiourea]", "IC50": 444}
{"compound": "COc1cc2nccc(Oc3ccc(NC(=O)CC(=O)Nc4cccnc4)cc3)c2cc1OC", "note": "[Example 227, N-[4-(6,7-dimethoxyquinolin-4-yloxy)phenyl]-N′-pyridin-3-ylmalonamide]", "IC50": 4360}
{"compound": "COc1cc2c(Oc3ccc(NC(=S)NC(=O)Cc4cccc(F)c4)cc3F)ccnc2cc1OCC(O)CN1CCCCC1", "note": "(stereo not shown) [Example 324, 1-{3-Fluoro-4-[7-(2-hydroxy-3-piperidin-1-yl-propoxy)-6-methoxy-quinolin-4-yloxy]-phenyl}-3-[2-(3-fluoro-phenyl)-acetyl]-thiourea]", "IC50": 23.4}
{"compound": "COc1cc2nccc(Oc3ccc(NC(=S)NC(=O)Cc4cccc(Cl)c4)cc3)c2cc1OC", "note": "[Example 171, 1-[2-(3-chlorophenyl)acetyl]-3-[4-(6,7-dimethoxyquinolin-4-yloxy)phenyl]thiourea]", "IC50": 282}
{"compound": "COc1ccccc1CC(=O)NC(=S)Nc1ccc(Oc2ccnc3cc(OC)c(OC)cc23)c(F)c1", "note": "[Example 83, 1-[4-(6,7-dimethoxyquinolin-4-yloxy)-3-fluoro-phenyl]-3-[2-(2-methoxyphenyl)acetyl]thiourea]", "IC50": 39.1}
{"compound": "COc1cc2nccc(Oc3ccc(NC(=S)NC(=O)Cc4ccc(F)cc4)cc3)c2cc1OC", "note": "[Example 71, 1-[4-(6,7-dimethoxyquinolin-4-yloxy)phenyl]-3-[2-(4-fluorophenyl)acetyl]thiourea]", "IC50": 29.9}
{"compound": "COc1cc2nccc(Oc3cc(C)c(NC(=S)NC(=O)Cc4ccccc4)cc3C)c2cc1OC", "note": "[Example 163, 1-[4-(6,7-dimethoxyquinolin-4-yloxy)-2,5-dimethylphenyl]-3-phenylacetylthiourea]", "IC50": 202}
{"compound": "COc1cc2nccc(Oc3ccc(NC(=O)NC(=O)Cc4c(F)cccc4F)cc3F)c2cc1OC", "note": "[Example 135, 1-[2-(2,6-difluorophenyl)acetyl]-3-[4-(6,7-dimethoxyquinolin-4-yloxy)-3-fluorophenyl]urea]", "IC50": 226}
{"compound": "COc1cc2nccc(Oc3ccc(NC(=S)NC(=O)Cc4cccc(C)c4)c(F)c3)c2cc1OC", "note": "[Example 175, 1-[4-(6,7-dimethoxyquinolin-4-yloxy)-2-fluorophenyl]-3-(2-m-tolylacetyl)thiourea]", "IC50": 955}
{"compound": "COc1cc2nccc(Oc3ccc(NC(=O)NC(=O)c4ccccc4Cl)c(F)c3)c2cc1OC", "note": "[Example 107, 1-(2-chloro-benzoyl)-3-[4-(6,7-dimethoxy-quinolin-4-yloxy)-2-fluorophenyl]urea]", "IC50": 345}
{"compound": "COc1cc2nccc(Oc3ccc(NC(=O)NC(=O)Nc4ccc([N+](=O)[O-])cc4)cc3)c2cc1OC", "note": "[Example 254, N-(4-nitrophenyl)-({[4-(6,7-dimethoxy-quinolin-4-yloxy)anilino]carbonyl}amino)methanamide]", "IC50": 365}
{"compound": "COc1cc2nccc(Oc3ccc(NC(=S)NC(=O)Cc4ccc(Cl)cc4)cc3Cl)c2cc1OC", "note": "[Example 189, 1-[3-chloro-4-(6,7-dimethoxyquinolin-4-yloxy)phenyl]-3-[2-(4-chlorophenyl)acetyl]thiourea]", "IC50": 232}
{"compound": "COc1cc2nccc(Oc3ccc(NC(=S)NC(=O)c4ccc(C)s4)cc3)c2cc1OC", "note": "[Example 160, 1-[4-(6,7-dimethoxyquinolin-4-yloxy)phenyl]-3-(5-methylthiophen-2-carbonyl)thiourea]", "IC50": 1630}
{"compound": "COc1cc2nccc(Oc3ccc(NC(=S)NC(=O)[C@H](C)c4ccccc4)cc3)c2cc1OC", "note": "[Example 158, 1-[4-(6,7-dimethoxyquinolin-4-yloxy)phenyl]-3-(2-phenylpropionyl)thiourea]", "IC50": 465}
{"compound": "COc1cc2nccc(Oc3ccc(NC(=O)NC(=O)Nc4ccccc4Cl)cc3)c2cc1OC", "note": "[Example 248, N-(2-chlorophenyl)-({[4-(6,7-dimethoxy-quinolin-4-yloxy)anilino]carbonyl}amino)methanamide]", "IC50": 957}
{"compound": "COc1cc2nccc(Oc3ccc(NC(=S)NC(=O)Cc4ccccc4C)cc3)c2cc1OC", "note": "[Example 79, 1-[4-(6,7-dimethoxyquinolin-4-yloxy)phenyl]-3-(2-o-tolylacetyl)thiourea]", "IC50": 145}
{"compound": "COc1cc2nccc(Oc3ccc(NC(=S)NC(=O)Cc4ccccc4)cc3OC)c2cc1OC", "note": "[Example 68, 1-[4-(6,7-dimethoxyquinolin-4-yloxy)-3-methoxyphenyl]-3-phenylacetylthiourea]", "IC50": 194}
{"compound": "COc1cc2c(Oc3ccc(NC(=O)NC(=O)Cc4ccc(F)cc4)cc3F)ccnc2cc1OCCCCN1CCN(C)CC1", "note": "[Example 43, 1-(3-fluoro-4-{6-methoxy-7-[4-(4-methyl-piperazin-1-yl)-butoxy]quinolin-4-yloxy}phenyl)-3-[2-(4-fluorophenyl)acetyl]urea]", "IC50": 167}
{"compound": "COc1cc2c(Oc3ccc(NC(=S)NC(=O)Cc4ccccc4F)cc3F)ccnc2cc1OCC(O)CN1CCCC1", "note": "(stereo not shown) [Example 319, 1-{3-Fluoro-4-[7-(2-hydroxy-3-pyrrolidin-1-yl-propoxy)-6-methoxy-quinolin-4-yloxy]-phenyl}-3-[2-(2-fluoro-phenyl)-acetyl]-thiourea]", "IC50": 127}
{"compound": "COc1cc2nccc(Oc3ccc(NC(=O)NC(=O)Nc4c(C)cccc4C)cc3)c2cc1OC", "note": "[Example 258, N-(2,6-dimethylphenyl)-({[4-(6,7-dimethoxy-quinolin-4-yloxy)anilino]carbonyl}amino)methanamide]", "IC50": 357}
{"compound": "COc1cc2nccc(Oc3ccc(NC(=O)CC(=O)Nc4cccc(O)c4)cc3)c2cc1OC", "note": "[Example 220, N-[4-(6,7-dimethoxyquinolin-4-yloxy)phenyl]-N′-(3-hydroxyphenyl)malonamide]", "IC50": 297}
{"compound": "COc1cc2nccc(Oc3ccc(NC(=S)NC(=O)C4C[C@@H]4c4ccccc4)cc3)c2cc1OC", "note": "(stereo in doubt) [Example 150, 1-[4-(6,7-dimethoxyquinolin-4-yloxy)phenyl]-3-(2-phenylcyclopropanecarbonyl)thiourea]", "IC50": 1280}
